Test results as given in ChEMBL document CHEMBL1143071, “Sodium pancratistatin 3,4-o-cyclic phosphate, a water-soluble synthetic derivative of pancratistatin, is highly effective in a human colon tumor model” (J Nat Prod, 2008).
Calls of active or inactive are those of the source. The rule behind the calls is not given here.

Key:
[1] = system: HUVEC; assay: Disruption of normal microtubule structure in HUVEC cells at 250 uM after 1 hr; assay type: functional, cell-based; conditions: Homo sapiens
[2] = system: DLD-1; assay: Antitumor activity against human DLD1 cells after 1 hr by MTT assay; assay type: functional, cell-based; conditions: DLD-1, 1 h
[3] = system: HUVEC; assay: (§1) Disruption of normal microtubule structure in HUVEC cells at 250 uM after 3 hrs; assay type: functional, cell-based; conditions: Homo sapiens
[4] = system: DLD-1; assay: Antitumor activity in human DLD1 cell xenografted CD1 immunodeficient nude mouse at 100 mg/kg, iv assessed as mean tumor doubling time; assay type: functional
[5] = system: DLD-1; assay: Reduction in mitochondrial membrane potential in human DLD1 cells at 250 uM after 7 hrs assessed as decrease in fluorescence of mitoTracker green FM; assay type: functional, cell-based
[6] = system: HUVEC; assay: as §1; assay type: functional, cell-based; conditions: Homo sapiens; remark: listed apart in the source
[7] = system: DLD-1; assay: Cell cycle arrest in human DLD1 cells assessed as accumulation at G2/M phase at 25 uM; assay type: functional, cell-based
[8] = system: DLD-1; assay: Antitumor activity in human DLD1 cells xenografted CD1 immunodeficient nude mouse at 100 mg/kg after 24 hrs assessed as decrease in functional vasculature; set-up: scale not given: the % may be the effect or the level left
[9] = system: DLD-1; assay: Reduction in mitochondrial membrane potential in human DLD1 cells at 250 uM after 4 hrs assessed as decrease in fluorescence of mitoTracker green FM; assay type: functional, cell-based
[10] = system: DLD-1; assay: Antitumor activity in human DLD1 cell xenografted CD1 immunodeficient nude mouse at 100 mg/kg, iv assessed as weight loss; assay type: functional
[11] = system: DLD-1; assay: Antitumor activity in human DLD1 cells xenografted CD1 immunodeficient nude mouse at 100 mg/kg after 24 hrs assessed as increase in tumor necrosis; assay type: functional
[12] = system: DLD-1; assay: Antitumor activity against human DLD1 cells after 96 hrs; assay type: functional, cell-based; conditions: DLD-1, 96 h
[13] = system: DLD-1; assay: Reduction in mitochondrial membrane potential in human DLD1 cells at 250 uM after 24 hrs assessed as decrease in fluorescence of mitoTracker green FM; assay type: functional, cell-based
[14] = system: DLD-1; assay: Disruption of normal microtubule structure in human DLD1 cells at 440 nM; assay type: functional, cell-based
[15] = system: DLD-1; assay: Antitumor activity in human DLD1 cells xenografted CD1 immunodeficient nude mouse after 24 hrs assessed as decrease in functional vasculature; set-up: scale not given: the % may be the effect or the level left
[16] = system: DLD-1; assay: Antitumor activity in human DLD1 cells xenografted CD1 immunodeficient nude mouse after 24 hrs assessed as increase in tumor necrosis; assay type: functional
[17] = system: HUVEC; assay: Disruption of normal microtubule structure in HUVEC cells at 440 nM; assay type: functional, cell-based; conditions: Homo sapiens
[18] = system: DLD-1; assay: Antitumor activity in human DLD1 cell xenografted CD1 immunodeficient nude mouse assessed as mean tumor doubling time; assay type: functional
[19] = system: DLD-1; assay: Antitumor activity in human DLD1 cell xenografted CD1 immunodeficient nude mouse assessed as weight loss; assay type: functional

| Structure (SMILES) | Activity [1] | IC50 [2] [µM] | Activity [3] | Activity [4] [days] | Activity [5] | Activity [6] | Activity [7] | Activity [8] [%] | Activity [9] | Activity [10] [%] | Activity [11] [%] | IC50 [12] [µM] | Activity [13] | Activity [14] | Activity [15] [%] | Activity [16] [%] | Activity [17] | Activity [18] [days] | Activity [19] [%] |
| --- | --- | --- | --- | --- | --- | --- | --- | --- | --- | --- | --- | --- | --- | --- | --- | --- | --- | --- | --- |
| O=C1N[C@H]2[C@@H]3OP(=O)([O-])O[C@@H]3[C@@H](O)[C@H](O)[C@@H]2c2cc3c(c(O)c21)OCO3.[Na+] | inactive | 253 | inactive | 15.1 | Active | inactive | inactive | 0.6 | Active | 8.8 | 95.3 | 19.7 | Active |  |  |  |  |  |  |
| CC(=O)O[C@H]1C(=O)[C@@]2(C)[C@H]([C@H](OC(=O)c3ccccc3)[C@]3(O)C[C@H](OC(=O)[C@H](O)[C@@H](NC(=O)c4ccccc4)c4ccccc4)C(C)=C1C3(C)C)[C@]1(OC(C)=O)CO[C@@H]1C[C@@H]2O [PACLITAXEL] |  |  |  |  |  |  |  |  |  |  |  |  |  | Active | 6.5 | 8.1 | Active | 6.2 | 0.5 |
